In ChEMBL document CHEMBL4261592, “Antiplasmodial flavanones and a stilbene from Carpha glomerata” (Bioorg Med Chem Lett, 2018):

Each molecule was assayed on Plasmodium falciparum (assay: Antiplasmodial activity against ring-stage chloroquine-resistant Plasmodium falciparum Dd2 assessed as reduction in parasite viability after 72 hrs by SYBR Green I dye-based assay). Conditions: Dd2, 72 h.
Assay type: functional, organism-based
CC(C)=CCc1c(O)cc(O)c2c1O[C@H](c1ccc(O)cc1)CC2=O gave an IC50 of 6.7 µM. Molecule COc1c(O)cc([C@@H]2CC(=O)c3c(O)cc(O)c(CC=C(C)C)c3O2)cc1O has an IC50 of 5.2 µM. With COc1cc2c(c(O)c1C)C(=O)C[C@@H](c1cc(O)c(OC)c(O)c1)O2 the IC50 was greater than 10 µM. Work on CC(C)(O)CCc1c(O)cc(O)c2c1O[C@H](c1ccc(O)cc1)CC2=O yielded an IC50 of 3.4 µM. In the case of COc1c(O)cc([C@@H]2CC(=O)c3c(O)c(C)c(O)c(C)c3O2)cc1O, the IC50 is reported as greater than 10 µM. Work on COc1c(O)ccc(/C=C/c2cc(O)cc(O)c2)c1CC=C(C)C yielded an IC50 of 5.8 µM. COc1c(O)cc([C@@H]2CC(=O)c3c(O)c(C)c(OC)c(C)c3O2)cc1O gave an IC50 greater than 10 µM. For C[C@@H]1CC[C@H]2[C@@H](C)C(=O)O[C@@H]3O[C@@]4(C)CC[C@@H]1[C@]32OO4 [ARTEMISININ], the IC50 was 0.012 µM.
